Laboratory results from ChEMBL document CHEMBL3044763, “Inhibitory Activities of Rhodanine Derivatives on Plant Growth” (Biosci Biotechnol Biochem, 1996).

How the values were obtained:
[1] = Toxicity in Mus musculus ddY (mouse) assessed as mortality at 450 mg/kg, ip after 1 day; format: organism-based; design: dose 450 mg/kg, route intraperitoneal; settings: in vivo
[2] = Toxicity in Mus musculus ddY (mouse) assessed as mortality at 550 mg/kg, ip after 1 day; format: organism-based; design: dose 550 mg/kg, route intraperitoneal; settings: in vivo
[3] = Toxicity in Mus musculus ddY (mouse) assessed as mortality at 500 mg/kg, ip after 1 day; format: organism-based; design: dose 500 mg/kg, route intraperitoneal; settings: in vivo
[4] = Toxicity in Mus musculus ddY (mouse) assessed as mortality at 650 mg/kg, ip after 1 day; format: organism-based; design: dose 650 mg/kg, route intraperitoneal; settings: in vivo
[5] = Toxicity in Mus musculus ddY (mouse) assessed as mortality at 600 mg/kg, ip after 1 day; format: organism-based; design: dose 600 mg/kg, route intraperitoneal; settings: in vivo
[6] = system: Brassica rapa subsp. oleifera; test: Growth inhibition of Brassica rapa subsp. oleifera assessed as chlorophyll b level at 3 x 10^-5 M after 7 days; format: functional; design: scale not given: the % may be the effect or the level left
[7] = Toxicity in Mus musculus ddY (mouse) assessed as mortality at 400 mg/kg, ip after 1 day; format: organism-based; design: dose 400 mg/kg, route intraperitoneal; settings: in vivo
[8] = system: Brassica rapa subsp. oleifera; test: Growth inhibition of Brassica rapa subsp. oleifera assessed as chlorophyll b level at 5 x 10^-5 M after 7 days; format: functional; design: scale not given: the % may be the effect or the level left
[9] = system: Brassica rapa subsp. oleifera; test: Growth inhibition of Brassica rapa subsp. oleifera assessed as chlorophyll a level at 1 x 10^-4 M after 7 days; format: functional; design: scale not given: the % may be the effect or the level left
[10] = system: Brassica rapa subsp. oleifera; test: Growth inhibition of Brassica rapa subsp. oleifera assessed as chlorophyll a level at 3 x 10^-4 M after 7 days; format: functional; design: scale not given: the % may be the effect or the level left
[11] = Toxicity in Mus musculus ddY (mouse) assessed as mortality at 450 mg/kg, ip after 5 days; format: organism-based; design: dose 450 mg/kg, route intraperitoneal; settings: in vivo
[12] = Toxicity in Mus musculus ddY (mouse) assessed as mortality at 550 mg/kg, ip after 5 days; format: organism-based; design: dose 550 mg/kg, route intraperitoneal; settings: in vivo
[13] = Toxicity in Mus musculus ddY (mouse) assessed as mortality at 500 mg/kg, ip after 5 days; format: organism-based; design: dose 500 mg/kg, route intraperitoneal; settings: in vivo
[14] = Toxicity in Mus musculus ddY (mouse) assessed as mortality at 600 mg/kg, ip after 5 days; format: organism-based; design: dose 600 mg/kg, route intraperitoneal; settings: in vivo
[15] = Toxicity in Mus musculus ddY (mouse) assessed as mortality at 650 mg/kg, ip after 5 days; format: organism-based; design: dose 650 mg/kg, route intraperitoneal; settings: in vivo
[16] = Toxicity in Mus musculus ddY (mouse) assessed as mortality at 400 mg/kg, ip after 5 days; format: organism-based; design: dose 400 mg/kg, route intraperitoneal; settings: in vivo
[17] = Toxicity in Mus musculus ddY (mouse) assessed as mortality at 500 mg/kg, ip after 7 days; format: organism-based; design: dose 500 mg/kg, route intraperitoneal; settings: in vivo
[18] = Toxicity in Mus musculus ddY (mouse) assessed as mortality at 600 mg/kg, ip after 7 days; format: organism-based; design: dose 600 mg/kg, route intraperitoneal; settings: in vivo
[19] = Toxicity in Mus musculus ddY (mouse) assessed as mortality at 550 mg/kg, ip after 7 days; format: organism-based; design: dose 550 mg/kg, route intraperitoneal; settings: in vivo
[20] = Toxicity in Mus musculus ddY (mouse) assessed as mortality at 650 mg/kg, ip after 7 days; format: organism-based; design: dose 650 mg/kg, route intraperitoneal; settings: in vivo
[21] = Toxicity in Mus musculus ddY (mouse) assessed as mortality at 400 mg/kg, ip after 7 days; format: organism-based; design: dose 400 mg/kg, route intraperitoneal; settings: in vivo
[22] = Toxicity in Mus musculus ddY (mouse) assessed as mortality at 450 mg/kg, ip after 6 days; format: organism-based; design: dose 450 mg/kg, route intraperitoneal; settings: in vivo
[23] = Toxicity in Mus musculus ddY (mouse) assessed as mortality at 550 mg/kg, ip after 6 days; format: organism-based; design: dose 550 mg/kg, route intraperitoneal; settings: in vivo
[24] = Toxicity in Mus musculus ddY (mouse) assessed as mortality at 500 mg/kg, ip after 6 days; format: organism-based; design: dose 500 mg/kg, route intraperitoneal; settings: in vivo
[25] = Toxicity in Mus musculus ddY (mouse) assessed as mortality at 650 mg/kg, ip after 6 days; format: organism-based; design: dose 650 mg/kg, route intraperitoneal; settings: in vivo
[26] = Toxicity in Mus musculus ddY (mouse) assessed as mortality at 600 mg/kg, ip after 6 days; format: organism-based; design: dose 600 mg/kg, route intraperitoneal; settings: in vivo
[27] = Toxicity in Mus musculus ddY (mouse) assessed as mortality at 400 mg/kg, ip after 6 days; format: organism-based; design: dose 400 mg/kg, route intraperitoneal; settings: in vivo
[28] = Toxicity in Mus musculus ddY (mouse) assessed as mortality at 450 mg/kg, ip after 7 days; format: organism-based; design: dose 450 mg/kg, route intraperitoneal; settings: in vivo
[29] = Toxicity in Mus musculus ddY (mouse) assessed as mortality at 450 mg/kg, ip after 4 days; format: organism-based; design: dose 450 mg/kg, route intraperitoneal; settings: in vivo
[30] = Toxicity in Mus musculus ddY (mouse) assessed as mortality at 550 mg/kg, ip after 4 days; format: organism-based; design: dose 550 mg/kg, route intraperitoneal; settings: in vivo

Q: With `O=C(O)CN1C(=O)CSC1=S` [RHODANINE-3-ACETIC ACID] as the molecule, how does the mortality at 24 h [1] read?
A: 0%

Q: And the mortality at 24 h [2]?
A: 0%

Q: And the mortality at 24 h [3]?
A: 0%

Q: And the mortality at 24 h [4]?
A: 20%

Q: And the mortality at 24 h [5]?
A: 20%

Q: What about the Activity [6] of the same molecule?
A: 7.05%

Q: And the mortality at 24 h [7]?
A: 0%

Q: And the Activity [8]?
A: 7.35%

Q: What about the Activity [9] of the same molecule?
A: 14.1%

Q: What about the Activity [10] of the same molecule?
A: 10.17%

Q: What about the mortality at 120 h [11] of the same molecule?
A: 20%

Q: And the mortality at 120 h [12]?
A: 80%

Q: And the mortality at 120 h [13]?
A: 20%

Q: And the mortality at 120 h [14]?
A: 80%

Q: And the mortality at 120 h [15]?
A: 100%

Q: What about the mortality at 120 h [16] of the same molecule?
A: 0%

Q: What about the mortality at 168 h [17] of the same molecule?
A: 40%

Q: And the mortality at 168 h [18]?
A: 80%

Q: What about the mortality at 168 h [19] of the same molecule?
A: 80%

Q: And the mortality at 168 h [20]?
A: 100%

Q: What about the mortality at 168 h [21] of the same molecule?
A: 0%

Q: And the mortality at 144 h [22]?
A: 20%

Q: What about the mortality at 144 h [23] of the same molecule?
A: 80%

Q: And the mortality at 144 h [24]?
A: 40%

Q: What about the mortality at 144 h [25] of the same molecule?
A: 100%

Q: What about the mortality at 144 h [26] of the same molecule?
A: 80%

Q: What about the mortality at 144 h [27] of the same molecule?
A: 0%

Q: What about the mortality at 168 h [28] of the same molecule?
A: 20%

Q: And the mortality at 96 h [29]?
A: 20%

Q: And the mortality at 96 h [30]?
A: 80%
